The compounds below were run against T1, human hERG channels (Kv11.1) (Homo sapiens, UniProt Q12809) (assay: hERG assay, automated planar patch-clamp in CHO cells stably expressing human hERG channels). Settings: peak tail-current, QPatch HTX whole-cell voltage-clamp, room temperature, 0.12-30 μM.
T1 construct: host or cells: CHO cells (hERG-Duo cells)
Assay type: cell-based
Procedure: Pharmacological activity of the compounds at cardiac hERG channels (Kv11.1) was assessed functionally using an automated planar patch-clamp electrophysiology station. CHO cells stably expressing human hERG channels were grown under the permanent pressure of the appropriate selection antibiotics according to the specifications of the manufacturer (hERG-Duo cells, B'SYS GmbH, Switzerland). Cells were harvested below 80% confluence, suspended in serum-free medium and dispensed automatically to multi-well recording plates for whole-cell voltage-clamp recordings on a QPatch HTX workstation (Sophion, BiolinScientific AB, Denmark). The composition of the extracellular recording buffer was (in mM): NaCl, 150; KCl, 4; CaCl2), 2; MgCl2, 1; HEPES, 10; and glucose, 10; adjusted to pH 7.4 with NaOH. The intracellular buffer contained (in mM): KCl, 120; CaCl2), 5; MgCl2, 2; EGTA, 10; HEPES, 10; and Mg-ATP, 4; adjusted to pH 7.2 with KOH. The voltage protocol used to activate hERG currents consisted in a first depolarizing step from a −80 mV holding potential to +20 mV for 5 s followed by a second repolarizing step to −50 mV. Cycle time was 15 s, recordings were performed at room temperature and drug effects were evaluated on the peak tail-current elicited by the second repolarizing step. For pharmacology, stock solutions of the test articles at 10 mM were prepared in DMSO. A 6-point concentration-range was prepared in polypropylene micro-titer plates by first serially diluting the initial 10 mM stock 1:3 in DMSO and then diluting each of the 6 intermediate working solutions 1:333 in extracellular recording medium containing 0.06% Pluronic F-68 (Gibco/Thermofischer, France). Final concentrations of test articles (i.e. 0.12 μM, 0.37 μM, 1.1 μM, 3.3 μM, 10 μM and 30 μM) were applied cumulatively to the cells in ascending order. A positive control (terfenadine, 10 μM) was added at the end of each recording sequence. Time-course of hERG tail current amplitude was analyzed off-line following optional leak current substraction and compensation of current rundown as needed. Half-maximal inhibitory concentrations (IC50) were obtained by fitting current amplitudes measured at the end of each exposure period and normalized with respect to pre-drug baseline with a four parameter sigmoidal equation.

T1 sequence (Q12809 whole entry): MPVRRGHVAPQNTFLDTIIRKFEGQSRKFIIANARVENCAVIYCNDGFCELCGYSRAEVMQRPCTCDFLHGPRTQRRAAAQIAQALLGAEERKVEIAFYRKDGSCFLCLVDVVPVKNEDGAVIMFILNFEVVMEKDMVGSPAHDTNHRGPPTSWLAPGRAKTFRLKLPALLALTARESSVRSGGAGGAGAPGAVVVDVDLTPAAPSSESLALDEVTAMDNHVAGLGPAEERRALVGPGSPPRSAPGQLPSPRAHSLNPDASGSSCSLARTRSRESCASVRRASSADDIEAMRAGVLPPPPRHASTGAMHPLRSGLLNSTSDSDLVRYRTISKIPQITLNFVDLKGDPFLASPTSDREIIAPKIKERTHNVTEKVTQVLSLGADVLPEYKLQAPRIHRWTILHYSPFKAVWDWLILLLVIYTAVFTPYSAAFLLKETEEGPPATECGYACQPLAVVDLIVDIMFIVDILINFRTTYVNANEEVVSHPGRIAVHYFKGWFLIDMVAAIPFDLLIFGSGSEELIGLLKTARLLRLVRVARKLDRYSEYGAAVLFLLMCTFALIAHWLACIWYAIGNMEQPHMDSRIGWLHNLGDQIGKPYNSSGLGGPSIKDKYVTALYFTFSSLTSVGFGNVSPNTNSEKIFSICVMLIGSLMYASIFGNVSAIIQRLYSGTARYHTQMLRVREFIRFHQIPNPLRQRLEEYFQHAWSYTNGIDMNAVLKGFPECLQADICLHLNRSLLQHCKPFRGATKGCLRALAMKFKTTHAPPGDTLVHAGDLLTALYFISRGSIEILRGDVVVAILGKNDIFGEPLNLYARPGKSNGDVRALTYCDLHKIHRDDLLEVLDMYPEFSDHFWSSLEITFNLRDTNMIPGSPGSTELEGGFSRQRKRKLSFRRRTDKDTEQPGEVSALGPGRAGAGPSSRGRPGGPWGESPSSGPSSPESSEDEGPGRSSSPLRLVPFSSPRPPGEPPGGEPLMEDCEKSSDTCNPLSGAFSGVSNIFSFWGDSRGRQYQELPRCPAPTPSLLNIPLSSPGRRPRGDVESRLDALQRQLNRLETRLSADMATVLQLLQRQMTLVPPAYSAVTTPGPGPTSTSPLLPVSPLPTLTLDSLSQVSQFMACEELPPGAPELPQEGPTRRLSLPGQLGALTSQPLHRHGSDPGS

SMILES	IC50 [µM]
C[C@]1(C#N)C[C@](N)(c2ncc(-c3ccc4nc5n(c4c3)[C@@H]3C[C@H]5NC(=O)c4cccc(OC(F)F)c43)cc2F)C1 [Example 4, cis-3-Amino-3-{5-[(7R,14R)-1-(difluoromethoxy)-5-oxo-5,6,7,14-tetrahydro-7,14-methanobenzimidazo[1,2-b][2,5]benzodiazocin-11-yl]-3-fluoropyridin-2-yl}-1-methyl-cyclobutanecarbonitrile]	> 30
C[C@]1(O)C[C@](N)(c2ncc(-c3ccc4nc5n(c4c3)[C@@H]3C[C@H]5NC(=O)c4cccc(OC(F)F)c43)cc2F)C1 [Example 8, (7R,14R)-11-[6-(cis-1-Amino-3-hydroxy-3-methylcyclobutyl)-5-fluoropyridin-3-yl]-1-(difluoromethoxy)-6,7-dihydro-7,14-methanobenzimidazo[1,2-b][2,5]benzodiazocin-5(14H)-one]	> 30
C[C@]1(CO)C[C@](N)(c2ncc(-c3ccc4nc5n(c4c3)[C@@H]3C[C@H]5NC(=O)c4cccc(OC(F)F)c43)cn2)C1 [Example 15, (7R,14R)-11-{2-[cis-1-Amino-3-(hydroxymethyl)-3-methylcyclobutyl]pyrimidin-5-yl}-1-(difluoromethoxy)-6,7-dihydro-7,14-methanobenzimidazo[1,2-b][2,5]benzodiazocin-5(14H)-one]	> 30
CN1C(=O)c2cccc(OC(F)F)c2[C@H]2C[C@@H]1c1nc3ccc(-c4cnc([C@]5(N)C[C@](O)(C(F)(F)F)C5)c(F)c4)cc3n12 (single isomer, unassigned) [Example 11]	> 30
C[C@]1(CO)C[C@](N)(c2ncc(-c3ccc4nc5n(c4c3)[C@@H]3C[C@H]5NC(=O)c4cccc(OC(F)F)c43)cc2F)C1 [Example 10, (7R,14R)-11-{6-[cis-1-Amino-3-(hydroxymethyl)-3-methylcyclobutyl]-5-fluoropyridin-3-yl}-1-(difluoromethoxy)-6,7-dihydro-7,14-methanobenzimidazo[1,2-b][2,5]-benzodiazocin-5(14H)-one]	> 30
N[C@]1(c2ncc(-c3ccc4nc5n(c4c3)[C@@H]3C[C@H]5NC(=O)c4cccc(OC(F)F)c43)cc2F)C[C@@](O)(C(F)(F)F)C1 [Example 13, (7R,14R)-11-{6-[cis-1-Amino-3-hydroxy-3-(trifluoromethyl)cyclobutyl]-5-fluoropyridin-3-yl}-1-(difluoromethoxy)-6,7-dihydro-7,14-methanobenzimidazo[1,2-b][2,5]-benzodiazocin-5(14H)-one]	> 30
C[C@]1(C#N)C[C@](N)(c2ncc(-c3ccc4nc5n(c4c3)[C@@H]3C[C@H]5NC(=O)c4cccc(OC(F)F)c43)cn2)C1 [Example 2, cis-3-Amino-3-{5-[(7R,14R)-1-(difluoromethoxy)-5-oxo-5,6,7,14-tetrahydro-7,14-methanobenzimidazo[1,2-b][2,5]benzodiazocin-11-yl]pyrimidin-2-yl}-1-methyl-cyclobutanecarbonitrile]	> 30
CN1C(=O)c2cccc(OC(F)F)c2[C@H]2C[C@@H]1c1nc3ccc(-c4cnc([C@]5(N)C[C@](O)(C(F)(F)F)C5)nc4)cc3n12 (single isomer, unassigned) [Example 12]	> 30
C[C@@H]1CC[C@@]1(N)c1ncc(-c2ccc3nc4n(c3c2)[C@@H]2C[C@H]4NC(=O)c3cccc(OC(F)F)c32)cc1F (single isomer, unassigned) [Example 5, (7R,14R)-11-{6-[(1 S,2R)-1-Amino-2-methylcyclobutyl]-5-fluoropyridin-3-yl}-1-(difluoromethoxy)-6,7-dihydro-7,14-methanobenzimidazo[1,2-b][2,5]benzodiazocin-5(14M-one or (7R,14R)-11-{6-[(1R,2S)-1-Amino-2-methylcyclobutyl]-5-fluoropyridin-3-yl}-1-(difluoromethoxy)-6,7-dihydro-7,14-methanobenzimidazo[1,2-b][2,5]-benzodiazocin-5(14H)-one]	> 30
[2H]C([2H])(O)[C@]1(C)C[C@@](N)(c2ncc(-c3ccc4nc5n(c4c3)[C@@H]3C[C@H]5NC(=O)c4cccc(OC(F)F)c43)cn2)C1 [Example 14, (7R,14R)-11-(2-{cis-1-Amino-3-[hydroxy(dideutero)methyl]-3-methylcyclobutyl}-pyrimidin-5-yl)-1-(difluoromethoxy)-6,7-dihydro-7,14-methanobenzimidazo[1,2-b][2,5]-benzodiazocin-5(14H)-one]	> 30
CN1C(=O)c2cccc(OC(F)F)c2[C@H]2C[C@@H]1c1nc3ccc(-c4cnc(C5(N)CCC5)nc4)cc3n12 [Example 6, (7R,14R)-11-[2-(1-Aminocyclobutyl)pyrimidin-5-yl]-1-(difluoromethoxy)-6-methyl-6,7-dihydro-7,14-methanobenzimidazo[1,2-b][2,5]benzodiazocin-5(14H)-one]	~8
[2H]C([2H])(O)[C@]1(C)C[C@@](N)(c2ncc(-c3ccc4nc5n(c4c3)[C@@H]3C[C@H]5NC(=O)c4cccc(OC(F)F)c43)cc2F)C1 [Example 16, (7R,14R)-11-(6-{cis-1-Amino-3-[hydroxy(dideutero)methyl]-3-methylcyclobutyl}-5-fluoropyridin-3-yl)-1-(difluoromethoxy)-6,7-dihydro-7,14-methanobenzimidazo[1,2-b]-[2,5]benzodiazocin-5(14H)-one]	> 30
